In ChEMBL document CHEMBL1201862, “PubChem BioAssay data set” (2004):
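48-hour exposure; five concentrations; linearly interpolated endpoints. The concentration for 50% growth inhibition is given as GI50.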 Activity calls are given as the source filed them. Rule as the data show it: active = GI50 up to about 1.1 µM and inactive = higher.

What was measured:
Assay in all cases: NCI-60 cell line screen, 48 h
M19-MEL = system: M19-MEL
DMS-273 = system: DMS-273
CAKI-1 = system: CAKI-1
BT-549 = system: BT-549
T47D = system: T47D
HOP-18 = system: HOP-18
RXF 631 = system: RXF 631
Hs-578T = system: Hs-578T

SMILES | GI50 (M19-MEL) | GI50 (DMS-273) | GI50 (CAKI-1) | GI50 (T47D) | other results
COc1cc2c(cc1OC)C(C1(O)CCCCC1)NCC2 (stereo not given) | > 100 µM (inactive) | > 100 µM (inactive) | – | – | –
CC(C)(C)OC(=O)NCC(=O)NC1c2ccsc2/C(=N/O)[C@H]1O (stereo not given in full) | – | – | > 100 µM (inactive) | > 100 µM (inactive) | GI50 (BT-549): > 100 µM (inactive)
O=C1c2ccccc2OCC12OC21C=CC(Cl)=CC1 (stereo not given) | – | – | – | – | GI50 (BT-549): 37.9 µM (inactive)
COc1cc(Cc2ccc3c(c2C#N)N(C)c2ccccc2S3)cc(OC)c1OC | 52.4 µM (inactive) | 33.4 µM (inactive) | – | – | GI50 (HOP-18): 72.4 µM (inactive)
O=C(NO)c1coc2ccccc2c1=O | – | > 100 µM (inactive) | 8.26 µM (inactive) | – | GI50 (RXF 631): > 100 µM (inactive)
CS(=O)(=O)C(C#N)c1nc2ccccc2nc1Cl (stereo not given) | 5.68 µM (inactive) | > 100 µM (inactive) | > 66.5 µM (inactive) | > 100 µM (inactive) | GI50 (BT-549): > 100 µM (inactive); GI50 (Hs-578T): 70.6 µM (inactive)
CC(=C/c1ccccc1)/C=C1/NC(=S)N(/C=C2\C(=O)Oc3ccccc3C2=O)C1=O | – | – | – | 1.76 µM (inactive) | –
CN(C)c1nc(N(C)C)nc(N(C)CN(C)c2ccccc2)n1 | > 100 µM (inactive) | – | – | – | GI50 (HOP-18): > 100 µM (inactive)
Cc1cc(NS(=O)(=O)c2ccc(NC(=O)c3cccc4c(Nc5ccc(S(N)(=O)=O)cc5)c5ccccc5nc34)cc2)no1 | > 100 µM (inactive) | – | – | – | GI50 (RXF 631): > 100 µM (inactive)
Cc1ccccc1-c1nc2c(C(=O)NCCN(C)C)cccc2[nH]1 | – | 31.5 µM (inactive) | 47.6 µM (inactive) | – | GI50 (HOP-18): 8.02 µM (inactive)
O=C1OC(c2ccc(O)c(F)c2)(c2ccc(O)c(F)c2)c2cccc3cccc1c23 | – | – | 2.79 µM (inactive) | – | GI50 (Hs-578T): 2.03 µM (inactive)
NC(=O)Oc1ccccc1 [CARBAMIC ACID PHENYL ESTER] | – | – | – | > 100 µM (inactive) | GI50 (Hs-578T): > 100 µM (inactive)
